Target: T1, Angiotensin II Receptor (Bos taurus, UniProt P25104)
T1 construct: The brownish tissue forming the adrenal cortex is scraped off and finely minced with scissors before homogenization; tissue Maxwell-Cohen (local slaughter house); host or cells: beef adrenal cortex, microsomal (100,000 x g) membranes
T1 sequence (P25104 1-359): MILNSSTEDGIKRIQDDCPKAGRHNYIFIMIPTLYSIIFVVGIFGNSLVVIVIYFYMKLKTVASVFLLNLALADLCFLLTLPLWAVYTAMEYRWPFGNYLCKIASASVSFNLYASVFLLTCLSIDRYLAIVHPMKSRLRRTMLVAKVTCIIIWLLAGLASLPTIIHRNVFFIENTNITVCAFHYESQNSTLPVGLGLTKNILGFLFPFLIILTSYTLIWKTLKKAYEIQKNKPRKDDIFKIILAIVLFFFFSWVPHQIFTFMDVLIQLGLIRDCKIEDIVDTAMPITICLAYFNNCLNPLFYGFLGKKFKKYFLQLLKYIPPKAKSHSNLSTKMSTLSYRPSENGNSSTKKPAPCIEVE
Assay: [125I](Sar1,Ile8)AngII receptor binding assay, bovine adrenal cortex membranes
Conditions: beef adrenal cortex membranes
Text: Beef adrenals are obtained from a local slaughter house (Maxwell-Cohen). [^125 I](Sar^1,ILe^8)-AngII, S.A. 2200 Ci/mmole, is purchased from Dupont (NEN®, Boston, Mass.). All unlabeled AngII analogs, Dimethylsulfoxide (DMSO), nucleotides, bovine serum albumin (BSA) are purchased from Sigma Chemical Co., St. Louis, MO U.S.A.
Approximately sixteen (16) to twenty (20) beef adrenal glands are processed as follows: fresh adrenal glands received on crushed ice are cleaned of fatty tissues and the tough membranes encapsulating the glands are removed and discarded. The brownish tissue forming the adrenal cortex is scraped off and finely minced with scissors before homogenization. Care is taken to avoid contamination with medullary tissue during dissection. The scraped cortices are suspended in twenty volumes of an ice-cold buffer medium consisting of 10 mM Tris.HCl (pH 7.4 at 22° C.) and containing 1.0 mM EDTA and 0.2M sucrose. Unless otherwise indicated, all subsequent operations are done at 4° C. […] The homogenate is centrifuged first at low speed (3,000 ×g) for 10 min. […] A 100 ul aliquot is withdrawn and the protein content of the preparation is determined by the Lowry's method (Lowry, O.H., Rosebrough, N.F., Farr, A.L. and Randall, R.J., Protein measurement with Folin phenol reagent. J. Biol. Chem., […], 265-275, 1951). […]

IC50 [nM]	Compound
102	CCCCc1nc2ccc(C3=NN4CCCC4C3)cc2c(=O)n1Cc1ccc(-c2ccccc2-c2nnn[nH]2)cc1 (centres unmarked) [Example 10, 2-Butyl-6-(3a,4,5,6-tetrahydro-3H-pyrrolo[1,2-b]-pyrazol-2-yl)-3-[[2'-(1H-tetrazol-5-yl)[1,1'-biphenyl]-4-yl]methyl]-4(3H)-quinazolinone]
56.4	CCCCc1nc2ccc(C3=NN4CCCCC4C3)cc2c(=O)n1Cc1ccc(-c2ccccc2-c2nnn[nH]2)cc1 (centres unmarked) [Example 11]

From patent US5292742A, “Angiotensin II receptor blocking 2,3,6 substituted quinazolinones” (American Cyanamid Company, priority 1993, dated 1994)
